According to patent publication US7582786B2, “Synthetic catalytic free radical scavengers useful as antioxidants for prevention and therapy of disease” (Eukarion Inc., priority 1996, dated 2009):

What was measured:
[1] = SOD activity, xanthine/xanthine oxidase with cytochrome C as acceptor (Example 2); type: biochemical; settings: for SOD: relative to C7 (C7 = 100)
Procedure: Superoxide dismutase (SOD) activity was assayed by following the inhibition of the reduction of an electron acceptor molecule in the presence of the free-radical generating system xanthine/xanthine oxidase (McCord et al. (1973) Superoxide and Superoxide Dismutase in “Oxidases and Related Redox Systems, vol. I, King et al. eds., University Park press, Baltimore, pp. 51-76). The assay mixture consisted of 50 mM sodium phosphate, pH 7.8, 120 μM xanthine, 0.2 units/ml xanthine oxidase, with acceptor molecule and salen manganese compound, as indicated. Assays were conducted at 27±0.2° C. using a water-jacketed cell holder in a Beckman DU7400 spectrophotometer. In most cases, oxidized cytochrome c, at 0.13 mg/ml, was employed as acceptor and its reduction was monitored spectrophotometrically at 550 nm. In some experiments, nitroblue tetrazolium (NBT), at 80 μM, was substituted for cytochrome c as the acceptor. NBT reduction was also monitored at 550 nm. An estimated extinction coefficient for NBT reduction, 20,800 M^−1cm^−1, determined empirically by exhaustive reduction of NBT in the reaction mixture described above, was employed where indicated. […] Conversion of xanthine to urate was calculated using ε290's of […] for urate and 4050 M^−1cm^−1 for xanthine. […] For each compound, at least four different concentrations were tested in duplicate.

[2] = test system: Human dermal fibroblasts (HF cells); test: Cell protection assay, glucose/glucose oxidase toxicity, XTT; type: cell-based
Procedure: Human dermal fibroblasts (HF cells) were obtained from the American type tissue Culture Collection at passage 1 and cultured and propagated in a medium (HF medium) consisting of Dulbecco's Modified Eagle's Medium with 4.5 g/l D-glucose, 10% calf serum 4 mM glutamine, 50 units/ml penicillin, and 50 μg/ml streptomycin in a 37° C. humidified incubator equilibrated with 5% CO2. Cells were used at passages 5 or 6 for experiments. For cell protection assays, HF cells were seeded at a density of about 15,000 cells per cm2 onto 96-well culture plates and allowed to grow to confluence. To assess protection tert-butylhydroperoxide (t-BHP) toxicity, confluent cell layers were first treated with the indicated concentrations of test compounds dissolved in HF medium for 18 hr. The medium was then replaced with fresh medium containing test compounds and 0.5 mM tert-butylhydroperoxide (t-BHP) and cells were incubated for another 18 hr. The medium was then removed and replaced with fresh HF medium (100 μl per well) without test compounds or t-BHP. Fifty μl of XTT reagent (Boeringer Mannheim, Inc.), prepared as described by the manufacturer, was then added to each well and the plates returned to the incubator. After 2 hr., the absorbance at 490 nm was measured in a BioRad (Richmond, Calif.) Model 3550 plate-reader, using a reference wavelength of 655 nm. Control cells that had not been exposed to test compounds or toxic agents were included among the samples treated with XTT reagent. Absorbance measurements for blank wells, containing HF medium and XTT reagent but no cells, were also determined. To analyze protection from glucose/glucose oxidase toxicity, confluent cell layers were incubated with HF medium containing glucose oxidase (0.019 units/ml) along with test compounds, as indicated, for 18 hr in the tissue culture incubator. Fresh HF medium was then added and cell viability assessed using the XTT reagent as described above. For both these models, concentrations of toxic agents were selected that were reproducibly completely lethal. Cytotoxicity assessments were routinely confirmed by visual inspection of the cell layers prior to addition of the XTT reagent.
(§1) Catalase and peroxidase activities were assayed as described in Example 2. Catalase assays contained 10 μM salen-manganese complex and 10 mM hydrogen peroxide. Peroxidase assays contained 10 μM salen-manganese complex and 0.2 mM hydrogen peroxide. Glucose-glucose oxidase toxicity assays were performed using human dermal fibroblasts as described in Example 2.

[3] = Peroxidase activity, H2O2-dependent oxidation of ABTS (Example 2); type: biochemical; settings: for Peroxidase: relative to C7 (C7 = 100)
Procedure: Peroxidase activity was assayed by monitoring the hydrogen peroxide-dependent oxidation of 2,2′-azino-bis(3-ethylbenzthiazoline-6) sulfonic acid (ABTS) spectrophotometrically. Standard assay mixtures consisted of 50 mM sodium phosphate, pH 8.1, 0.9% sodium chloride, 0.5 mM ABTS, and H2O2 and salen manganese complex as indicated. Where indicated, 50 mM sodium phosphate buffers of pH 6.0 or pH 7.1 were substituted. Assays were conducted at 27±0.2° C. ABTS oxidation was monitored at 740 or 500 nm to eliminate interference by the salen manganese complexes, many of which absorb in the vicinity of the λmax of oxidized ABTS, and to avoid absorbance values that exceeded the linear range of the spectrophotometer. The amount of oxidized ABTS was estimated using an Δε740 of 20,300 M^−1cm^−1 or an Δε500 of 3400 M^−1cm^−1 calculated based upon the published molar extinction coefficient oat 405 nm (36,800).
as §1

[4] = Catalase activity, conversion of H2O2 to oxygen, polarographic oxygen electrode (Example 2); type: biochemical; settings: for Catalase endpt. / Catalase rate: relative to C7 (C7 = 100)
Procedure: Catalase activity was assayed by monitoring the conversion of H2O2 to oxygen using a Clark-type polarographic oxygen electrode. The apparatus consisted of a Mini Clark Style electrode, a 600 μl Oxygen Uptake Chamber, and a Chemical Microsensor system, all obtained from Diamond General Corporation (Ann Arbor, Mich.). The electrode was calibrated by immersion in nitrogen- or air-equilibrated buffers using a Dual Chamber Calibration Cell (Diamond General,. Corp.). Catalase reaction mixtures consisted of 50 mM sodium phosphate, pH 8.1, 0.9% sodium chloride, and salen manganese complex and H2O2 at the indicated concentrations. The temperature of the water-jacketed reaction chamber, as well as the calibration buffers, was maintained at 25±0.1° C. Data were collected at 1 sec intervals and stored-on a MacIntosh II computer using data acquisition hardware and software by Strawberry Tree, Inc. (Sunnyvale, Calif.). Dissolved oxygen concentrations were calculated as described previously (Del Rio et al. (1977) Anal. Biochem. 80: 409) based on a value of 2.5×10^−4 M oxygen for air-saturated buffer at 25° C. Linearity of the dissolved oxygen measurements within the experimental range was continued by determining the amount of oxygen generated from known quantities of H2O2 during exhaustive treatment with bovine liver catalase. Stock solutions of H2O2 were prepared by diluting a commercial 30% H2O2 solution in water and the H2O2 concentrations in these stocks were determined by absorbance at 240 nm, using a molar extinction coefficient of 44 (Stadtman, E R. et al. (1990) Proc. Natl. Acad. Sci. USA 87: 384). […] In the absence of salen manganese complex, H2O2 alone typically produced an early, relatively slow increase in signal. The slope of this increased signal was not proportional to H2O2 concentration (for example in one experiment, 1 and 10 Mm H2O2 yielded apparent rates of 12 and 14 μM oxygen per min, respectively) and may be due to an electrode artifact. […] Where presented, initial rates were calculated by determining the slope of the linear portion of time dependent plots of oxygen generation, usually comprising the first five seconds of the reaction. Unless otherwise indicated, these were corrected by subtracting the rate obtained with H2O2 alone. Where presented, endpoint oxygen generated was calculated from time-dependent plots, such as those shown in FIG. 14, as the difference between the baseline oxygen concentration immediately prior to substrate addition and the maximal oxygen concentration achieved during the course of the reaction. All reactions subjected to these calculations were run for a sufficient time to ensure that oxygen generation had ceased.
as §1

[5] = 29 units/ml bovine liver catalase added, 10 mM H2O2

Molecule: COc1ccc2c(c1)C=NCCN=Cc1cc(OC)ccc1[O][Mn]([O]C(C)=O)[O]2 [Compound C38]
- SOD [1]: 100
- protection against glucose and glucose oxidase ([2]; 80 μM, glucose oxidase 0.019 units/ml): highly protective
- Peroxidase rate ([3]; 10 μM salen manganese complex, 0.2 mM H2O2): 19.8 ± 0.4 μM ABTS oxidized/min
- Peroxidase [3]: 129

Molecule: COc1cc2c(c(OC)c1)[O][Mn]([O]C(C)=O)[O]c1c(cc(OC)cc1OC)C=NCCN=C2 [Compound C42]
- Catalase endpt. [4]: 379
- Catalase rate [4]: 231
- SOD [1]: 130
- Peroxidase [3]: 171

Molecule: CC(=O)[O][Mn]1[O]c2ccccc2C=Nc2cccnc2N=Cc2ccccc2[O]1 [Compound C43]
- Catalase endpt. [4]: 494
- Catalase rate [4]: 446
- SOD [1]: 57
- Peroxidase [3]: 71

Molecule: COc1cccc2c1[O][Mn]([O]C(C)=O)[O]c1c(cccc1OC)C=Nc1ncccc1N=C2 [Compound C45]
- Catalase endpt. [4]: 674
- Catalase rate [4]: 357
- SOD [1]: 83
- Peroxidase [3]: 24

Molecule: COc1cccc2c1[O][Mn]([O]C(C)=O)[O]c1c(cccc1OC)C=Nc1ccccc1N=C2 [Compound C48]
- Catalase endpt. [4]: 741
- Catalase rate [4]: 485
- SOD [1]: 91
- Peroxidase [3]: 88

Molecule: COc1cccc2c1[O][Mn]([Cl])[O]c1c(cccc1OC)C=NC1CCCCC1N=C2 (stereo not drawn) [Compound C49]
- Catalase endpt. [4]: 285
- Catalase rate [4]: 123
- SOD [1]: 88
- Peroxidase [3]: 138

Molecule: [O]=[V]1[O]c2ccccc2C=NCCN=Cc2ccccc2[O]1 [Compound C53]
- Catalase endpt. [4]: 0
- Catalase rate [4]: 0
- SOD activity (in words) [1]: noncatalytic SOD activity
- SOD [1]: Noncatalytic
- Peroxidase [3]: 0

Molecule: O=[N+]([O-])[Mn]1[O]c2ccccc2C=NCCN=Cc2ccccc2[O]1 [Compound C56]
- SOD [1]: 200
- Peroxidase [3]: 107

Molecule: C1=NCCN=Cc2ccccc2[O][Zn][O]c2ccccc21 [Compound C60]
- SOD [1]: 0
- Peroxidase [3]: 0

Molecule: C1=NCCN=Cc2ccccc2[O][Cu][O]c2ccccc21 [Compound C63]
- SOD [1]: 0
- Peroxidase [3]: 0

Molecule: CCOc1cccc2c1[O][Mn]([Cl])[O]c1c(cccc1OCC)C=NCCN=C2 [Compound C67]
- Catalase endpt. [4]: 256
- Catalase rate [4]: 159
- SOD [1]: 94
- Peroxidase [3]: 134

Molecule: CCOc1cccc2c1[O][Mn]([O]C(C)=O)[O]c1c(cccc1OCC)C=NCCN=C2 [Compound C68]
- Catalase endpt. [4]: 326
- Catalase rate [4]: 196
- SOD [1]: 88
- Peroxidase [3]: 162

Molecule: CC(=O)[O][Mn]1[O]c2ccccc2C(C)=NCCN=C(C)c2ccccc2[O]1 [Compound C85]
- Catalase endpt. [4]: 19
- Catalase rate [4]: 31
- SOD [1]: 38
- Peroxidase [3]: 0

B1: bovine liver catalase: bovine liver catalase enzyme used as reference (protein, UniProt P00432 2-527, looked up)
Catalase: ADNRDPASDQMKHWKEQRAAQKPDVLTTGGGNPVGDKLNSLTVGPRGPLLVQDVVFTDEMAHFDRERIPERVVHAKGAGAFGYFEVTHDITRYSKAKVFEHIGKRTPIAVRFSTVAGESGSADTVRDPRGFAVKFYTEDGNWDLVGNNTPIFFIRDALLFPSFIHSQKRNPQTHLKDPDMVWDFWSLRPESLHQVSFLFSDRGIPDGHRHMNGYGSHTFKLVNANGEAVYCKFHYKTDQGIKNLSVEDAARLAHEDPDYGLRDLFNAIATGNYPSWTLYIQVMTFSEAEIFPFNPFDLTKVWPHGDYPLIPVGKLVLNRNPVNYFAEVEQLAFDPSNMPPGIEPSPDKMLQGRLFAYPDTHRHRLGPNYLQIPVNCPYRARVANYQRDGPMCMMDNQGGAPNYYPNSFSAPEHQPSALEHRTHFSGDVQRFNSANDDNVTQVRTFYLKVLNEEQRKRLCENIAGHLKDAQLFIQKKAVKNFSDVHPEYGSRIQALLDKYNEEKPKNAVHTYVQHGSHLSAREKANL
- rate of oxygen production ([4]; 19 units/ml, 2.3 mM H2O2): ~0.33 mM/min
- effect on rate of cytochrome C reduction by xanthine oxidase ([1]; 29 units/ml): did not affect
- protection against glucose and glucose oxidase ([2]; 290 units/ml): full protection
- protection against glucose and glucose oxidase ([2]; ten-fold lower dose than 290 units/ml): only partially protective
- peroxidase activity toward ABTS ([3]; 19 units/ml, pH 6.0, 7.1, 8.1): no peroxidase activity
- reduction of initial rate of ABTS oxidation by C7 [3, 5]: 55%
- total ABTS oxidized by C7 [3, 5]: 18 µM
